Data from US20120283321A1, “USE OF GAMBIEROL FOR TREATING AND/OR PREVENTING NEURODEGENERATIVE DISEASES RELATED TO TAU AND BETA-AMYLOID” (Universidade De Santiago De Compostela, priority 2009, published 2012).
Entries after “also recorded” stand apart in the source; their conditions may differ.

Legend:
[1] = Cell viability, Alamar Blue fluorescence assay in primary cortical cultures; type: cell-based, mice; settings: mouse, primary cortical neuron cultures from mouse embryos, 72 hours in culture, mean ± standard error, three experiments, read-out: Viability of cortical neurons, % with respect to the control
Description: (§1) In order to perform the experiments of the present invention, one of the following were used: an in vitro cortical neuron model with simultaneous overexpression of tau and β-amyloid obtained from an Alzheimer's disease model in triple transgenic mice (3×Tg−AD or 3×Tg), obtainable by means of the process explained in international application WO2003/053136 and provided by the holders of said application, or an in vitro cortical neuron model obtained from non-transgenic mice (No Tg). The triple transgenic neuronal model presents simultaneous overexpression of the human transgenes for presenilin (PS1M146V), the β-amyloid precursor protein (APPSwe) and the tau protein (tauP301L), which leads to an Alzheimer's model with overexpression of β-amyloid and hyperphosphorylation of tau.
(§2) The primary cortical cultures were obtained from 3×Tg−AD mice embryos of 15-17 days of gestation and the wild cultures were obtained from control non-3×Tg−AD mice embryos of the same strain. The effect of the compound used in this invention on the cell viability was determined by means of a fluorescence assay using the Alamar Blue viability indicator. In order to perform the assay, primary cortical cultures seeded in 96-well plates were used. The neuronal cells were incubated with the compound of the present invention, which was dissolved in dimethyl sulfoxide (DMSO) and added to the culture medium at different concentrations, and the effect thereof on the neuronal viability was determined at different times of treatment in vitro. The maximum concentration of gambierol evaluated in vitro was 20 μM and the concentration of Alamar Blue was 10%. The reaction volume used was 200 μl. The fluorescence was measured at wavelengths of 530 nm (excitation) and 590 nm (emission).

[2] = tested on: cortical neurons; experiment: as above; type: cell-based, mice; settings: up to a concentration of 20 μM
Description: as §1, §2

[3] = tested on: β-amyloid; experiment: Western Blot of intracellular β-amyloid (6E10 antibody) in cortical neurons from triple transgenic mice; type: cell-based; settings: 10 μM gambierol between days 3 and 7 of culture; 3×Tg-AD neocortical cultures
Description: (§3) In order to perform the experiments of the present invention, one of the following were used: an in vitro cortical neuron model with simultaneous overexpression of tau and β-amyloid obtained from an Alzheimer's disease model in triple transgenic mice (3×Tg−AD or 3×Tg), obtainable by means of the process explained in international application WO2003/053136 and provided by the holders of said application, or an in vitro cortical neuron model obtained from non-transgenic mice (No Tg). […]
(§4) In order to determine the effect of the compound of the present invention on the expression of tau and β-amyloid, Western Blot techniques were used. […] For the Western Blot studies, the protein expression was evaluated using the primary antibodies anti-β-amyloid 6E10 at a 1:500 dilution, anti-Tau AT8 (phosphorylated Tau at Ser 202, 1:1000 dilution) and anti-Tau AT100 (phosphorylated Tau at Thr 212 and Ser 214, 1:1000 dilution). […]
(§5) For the Western Blot assays, the neuronal cultures treated with the compound of the present invention were washed with cold PBS and lysed in 50 mM Tris-HCl buffer (pH 7.4), which contains 150 mM NaCl, 1 mM EDTA, 1% Triton X-100, 2 mM DTT, 2.5 mM PMSF, 40 mg/ml aprotinin, 4 mg/ml leupeptin, 5 mM NaF, 1 mM Na3VO4, 1 mg/ml pepstatin A and 1 mg/ml benzamidine. The total protein concentration was determined by Bradford's method, using bovine albumin as the standard. […]

[4] = tested on: phosphorylated Tau at Ser 202; experiment: Western Blot of phosphorylated tau at Ser 202 (AT8 antibody) in cortical neurons from triple transgenic mice; type: cell-based; settings: 10 μM gambierol between days 3 and 7 of culture; 3×Tg cultures; p<0.05, n=3
Description: as §3, §4, §5

[5] = tested on: phosphorylated Tau at Thr 212 and Ser 214; experiment: Western Blot of phosphorylated tau at Thr 212 and Ser 214 (AT100 antibody) in cortical neurons from triple transgenic mice; type: cell-based; settings: 10 μM gambierol between days 3 and 7 of culture; 3×Tg cultures; p<0.05, n=3
Description: as §3, §4, §5

[6] = tested on: total tau; experiment: Western Blot of baseline total tau (Tau46 antibody) in control neurons from non-transgenic mice; type: cell-based
Protocol: (§6) In order to determine the effect of gambierol on the baseline phosphorylation of tau, Western Blot techniques were used. An in vitro cortical nueron model obtained from non-transgenic mice was used. The neuronal cultures and the processing of the samples were performed in the same manner as in the preceding example. The data obtained were corrected with the quantity of β-actin as a function of the protein content of the samples.

[7] = tested on: phosphorylated tau at residue Ser 202; experiment: Western Blot of baseline phosphorylated tau at Ser 202 in control neurons from non-transgenic mice; type: cell-based
Protocol: as §6

[8] = tested on: extracellular β-amyloid peptide (β-amyloid 1-42 or β-amyloid 1-40); experiment: ELISA of extracellular β-amyloid in culture medium of cortical neurons; type: cell-based, mice; settings: triple transgenic cultures treated with gambierol compared to those not treated
Protocol: The levels of extracellular β-amyloid in the culture medium of cortical neurons obtained from triple transgenic mice or from control mice treated with gambierol were determined by means of commercial ELISA kits for the detection of β-amyloid 1-42 or β-amyloid 1-40, following the manufacturer's recommended instructions (Covance). These kits are composed of plates treated with antibodies which capture the β-amyloid peptide at the amino-terminal end thereof. The standards with known quantities of β-amyloid, and the culture medium collected from the neuronal preparations with unknown quantities of β-amyloid, were added to the wells and incubated. The plates were washed in order to eliminate the unbound peptide and incubated for 2 hours in the presence of an antibody that binds to the carboxyl-terminal end of the β-amyloid peptide. Subsequently, the plates were washed and incubated with a peroxidase-conjugated secondary antibody. […] The optical density was measured by the absorbance at 495 nm, and a straight-line pattern was obtained (FIG. 4) with the quantities of β-amyloid added, wherefrom the quantity of β-amyloid in the culture medium collected from the neuronal preparations treated with the compounds of the present invention could be extrapolated (FIG. 5).

[9] = 10 μM gambierol, mean ± standard error, two experiments

C=CC/C=C\C=C/C1OC2CC3OC4CCC5OC6CC7(C)OC8(C)C(O)CC(CCCO)OC8CC7OC6CC5OC4(C)CC3(C)OC2C=CC1(C)O (stereo not drawn) [gambierol]
viability at 72 h, 0.25 μM ([1]; 0.25 μM gambierol): 103 ± 5.2%
viability at 72 h, 0.5 μM ([1]; 0.5 μM gambierol): 110 ± 1.4%
viability at 72 h, 1 μM ([1]; 1 μM gambierol): 105 ± 6.3%
viability at 72 h, 5 μM ([1]; 5 μM gambierol): 106 ± 4.7%
viability at 72 h, 10 μM ([1]; 10 μM gambierol): 105 ± 5.8%
viability at 72 h, 20 μM ([1]; 20 μM gambierol): 102 ± 3.8%
Effect on cell viability of cortical neuronal cultures (in words) [2]: does not cause a reduction in the viability; also recorded: did not modify the cell viability
Overexpression of intracellular β-amyloid (6E10, Western Blot), in words [3]: significant decrease; also recorded: reduces
Phosphorylated tau at Ser 202 (AT8, Western Blot), in words [4]: significant decrease; also recorded: reduces
Phosphorylated tau at Thr 212 and Ser 214 (AT100, Western Blot), in words [5]: significant decrease; also recorded: reduces
Baseline quantity of total tau in control neurons (in words) [6]: did not affect
Baseline levels of total tau in control neurons, % with respect to the control [6, 9]: 111 ± 3.9%
Baseline level of phosphorylated tau at residue Ser 202 in control neurons (in words) [7]: did not affect
Levels of phosphorylated tau at residue Ser 202 in control neurons, % with respect to the control [7, 9]: 107 ± 8.1%
Levels of extracellular β-amyloid peptide secreted into the culture medium (in words) [8]: decrease
